Laboratory results published in patent US20070027215A1, “Nuclear receptor ligands and ligand binding domains” (The Regents of the University of California, priority 1995, published 2007).
Where two headings read alike, the source gives them in different places.

Key:
[1] = target: T1, TR-α (Homo sapiens, UniProt P10827); assay: Binding to TR isoform TR-α
T1 sequence (P10827 1-410 isoform P10827-2): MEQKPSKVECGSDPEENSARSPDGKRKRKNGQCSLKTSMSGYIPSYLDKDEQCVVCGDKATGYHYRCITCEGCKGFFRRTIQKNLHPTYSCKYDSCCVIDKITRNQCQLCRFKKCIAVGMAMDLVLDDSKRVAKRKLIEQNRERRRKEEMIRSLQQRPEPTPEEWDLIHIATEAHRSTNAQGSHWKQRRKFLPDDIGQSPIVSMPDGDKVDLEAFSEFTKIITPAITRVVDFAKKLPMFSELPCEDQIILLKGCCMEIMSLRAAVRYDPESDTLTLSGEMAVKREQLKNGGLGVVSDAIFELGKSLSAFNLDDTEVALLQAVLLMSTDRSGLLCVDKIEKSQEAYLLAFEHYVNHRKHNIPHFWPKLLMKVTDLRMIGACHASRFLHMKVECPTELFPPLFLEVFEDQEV
Source text: Assays for determining selective binding to the TR-α or TR-β LBD can include reporter assays, as described herein.

[2] = target: T2, TR-β (Homo sapiens, UniProt P10828); assay: Binding to TR isoform TR-β
T2 sequence (P10828 1-461): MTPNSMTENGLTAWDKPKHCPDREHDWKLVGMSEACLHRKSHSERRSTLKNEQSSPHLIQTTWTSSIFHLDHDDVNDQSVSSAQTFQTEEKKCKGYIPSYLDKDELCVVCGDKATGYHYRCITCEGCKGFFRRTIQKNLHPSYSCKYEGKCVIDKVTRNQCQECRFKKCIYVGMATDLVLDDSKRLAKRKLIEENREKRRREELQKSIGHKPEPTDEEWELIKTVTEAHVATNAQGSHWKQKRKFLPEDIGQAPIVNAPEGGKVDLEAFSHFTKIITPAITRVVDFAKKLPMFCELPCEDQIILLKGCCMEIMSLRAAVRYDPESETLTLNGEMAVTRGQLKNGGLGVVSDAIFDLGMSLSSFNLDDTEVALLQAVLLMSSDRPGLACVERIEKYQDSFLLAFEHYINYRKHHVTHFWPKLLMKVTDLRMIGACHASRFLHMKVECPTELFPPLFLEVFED
Experimental: 3,5-dibromo-4-(3′,5′-diisopropyl-4′-hydroxyphenoxy)Benzoic Acid is a TR-α Selective Synthetic Ligand. [drawing 4] 3,5-dibromo-4-(3′,5′-diisopropyl-4′-hydroxyphenoxy)benzoic acid (Compound 11), the structure of which is drawn above, is assayed for binding to the two different isoforms of the TR, TR-α and TR-β. […] Assays for determining selective binding to the TR-α or TR-β LBD can include reporter assays, as described herein. See also Hollenberg, et al., J. Biol. Chem., (1995) 270(24):14274-14280.

[3] = target: thyroid receptor (TR); assay: Receptor binding assay with TR from rat liver nuclei and [125I]T3; settings: TR from rat liver nuclei, 1 nM [125I]T3, overnight at 4° C.; read-out: App.Kd
Experimental: Baxter, and […]. […] The apparent Kd's are calculated using the method described by […]

[4] = target: T3, human TR-β LBD (Homo sapiens, UniProt P10828); assay: Competition for [125I]T3 binding, native TR-β; settings: read-out: Binding Affinity, Native TR-β
T3 sequence (P10828 217-461 limits assumed): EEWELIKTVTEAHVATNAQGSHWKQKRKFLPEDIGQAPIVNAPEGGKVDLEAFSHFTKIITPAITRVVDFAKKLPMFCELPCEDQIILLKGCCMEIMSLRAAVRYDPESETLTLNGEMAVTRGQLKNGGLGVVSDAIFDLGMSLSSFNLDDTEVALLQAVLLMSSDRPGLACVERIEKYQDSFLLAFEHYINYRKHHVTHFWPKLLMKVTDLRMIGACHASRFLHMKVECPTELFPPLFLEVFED
Experimental: Assays are performed in duplicate.
The following assays residues involved in selective binding among TR isoforms.

[5] = target: T4, human TR-α LBD (Homo sapiens, UniProt P10827); assay: Competition for [125I]T3 binding, native TR-α; settings: read-out: Binding Affinity, Native TR-α; competition with 1 nM [125I]T3
T4 sequence (P10827 163-410 isoform P10827-2 limits assumed): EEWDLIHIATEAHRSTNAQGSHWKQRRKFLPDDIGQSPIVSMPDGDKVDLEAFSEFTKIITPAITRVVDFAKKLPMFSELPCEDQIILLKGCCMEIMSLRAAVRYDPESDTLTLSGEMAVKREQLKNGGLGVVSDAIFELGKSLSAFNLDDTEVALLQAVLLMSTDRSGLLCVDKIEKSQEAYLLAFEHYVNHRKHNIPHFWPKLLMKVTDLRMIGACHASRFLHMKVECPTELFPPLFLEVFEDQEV

[6] = tested on: TR binding to RIP-140; assay: RIP-140 coactivation assay (35S-RIP-140 binding to liganded TR); type: biochemical; parameters: key: +: RIP-140 Binding; −: RIP-140 Binding
Experimental: To test the ability of TR ligands to activate the binding of TR to the nuclear activation protein RIP-140 (a nuclear protein that can bind to nuclear receptors, such as the estrogen receptor), a TR ligand is liganded to TR and then incubated with RIP-140 as described in V. Cavailles, et al., EMBO J., 14(15):3741-3751 (1995), which is incorporated by reference herein. In this assay, 35S-RIP-140 protein binds to liganded TR but not unliganded TR.

[7] = tested on: thyroid hormone receptors (TRs); assay: CAT reporter gene activation in cultured cells; type: cell-based; settings: U-937
Experimental: To test TR activation of transcription in a cellular environment, TR ligands are assayed for their ability to activate a reporter gene, chloramphenicol transferase (“CAT”), which has a TR DNA binding sequence operatively linked to it. Either GC or […] cells (available from the ATCC) can be used, respectively). In such assays, a TR ligand crosses the cell membrane, binds to the TR, and activates the TR, which in turn activates gene transcription of the CAT by binding the TR DNA binding region upstream of the CAT gene. The effective concentration for half maximal gene activation (EC50) is determined by assaying CAT gene activation at various concentrations as described herein and in the literature.
After electroporation, cells are pooled in growth medium (RPMI with 10% charcoal-treated, hormone stripped, newborn bovine serum), plated in 6-well dishes and treated with either ethanol or hormone. CAT activity is determined 24 hours later as described D. C. Leitman, R. C.

[8] = tested on: TR; settings: cited from earlier work
[9] = tested on: TR; assay: Receptor binding affinity stated in the structure discussion
[10] = half maximal CAT gene activation, GC or U937 cells, read-out: EC50

Row | SMILES | Kd [3] [nM] | Coactivation Assay RIP-140 [6] | EC50 [7, 10] [nM] | further results
1 | CC(C)c1cc(Oc2c(Br)cc(C(=O)O)cc2Br)cc(C(C)C)c1O [Compound 11, 3,5-dibromo-4-(3′,5′-diisopropyl-4′-hydroxyphenoxy)benzoic acid] | – | – | – | IC50 [1]: 1600 nM; IC50 [2]: 910 nM
2 | CCCCCCCCCCCCCCCCC(=O)N[C@@H](Cc1cc(I)c(Oc2ccc(O)c(I)c2)c(I)c1)C(=O)O [TS2] | 1400 | – | – | –
3 | Cc1cc(C[C@H](N)C(=O)O)cc(C)c1Oc1ccc(O)c(C(C)C)c1 [Dimit, 3,5-dimethyl-3′-isopropylthyronine] | – | – | – | Kd [4]: 8 nM; Kd [5]: 6 nM
4 | N[C@@H](Cc1cc(I)c(Oc2ccc(O)c(I)c2)c(I)c1)C(=O)O [Compound T3, 3,5,3′-triiodothyronine, reference compound] | – | + | – | EC50 [7]: 0.1 nM
5 | CC(C)c1cc(Oc2c(Br)cc(C[C@H](N)C(=O)O)cc2Br)ccc1O [IpBr2, 3,5-dibromo-3′-isopropylthyronine] | – | – | – | Kd [5]: 0.017 nM
6 | O=C(O)Cc1cc(I)c(Oc2ccc(O)c(I)c2)c(I)c1 [Triac, 3,5,3′-triiodothyroacetic acid] | – | – | – | binding affinity compared with T3 [8]: equal to that of T3; affinity for the alpha versus beta isoforms [9]: equal affinity
7 | O=C(N[C@@H](Cc1cc(I)c(Oc2ccc(O)c(I)c2)c(I)c1)C(=O)O)OCC1c2ccccc2-c2ccccc21 [TS3] | 4 | + | 10 | –
8 | CC(C)c1cc(Oc2c(I)cc(CC(N)C(=O)O)cc2I)ccc1O (stereo not shown) [TS9, reference compound] | – | + | – | –
9 | CC(C)(C)OC(=O)NC(Cc1cc(I)c(Oc2ccc(O)cc2)c(I)c1)C(=O)O (stereo not shown) [TS5] | 220 | + | 1000 | –
10 | CC(C)(C)OC(=O)N[C@@H](Cc1cc(I)c(Oc2ccc(O)c(I)c2)c(I)c1)C(=O)O [TS4] | 8 | + | – | –
11 | O=C(N[C@@H](Cc1cc(I)c(Oc2ccc(O)c(I)c2)c(I)c1)C(=O)O)C(c1ccccc1)c1ccccc1 [TS1] | 4 | + | 100 | –
12 | N[C@@H](Cc1cc(I)c(Oc2cc(I)c(O)c(I)c2)c(I)c1)C(=O)O [Compound T4, 3,5,3′,5′-tetraiodo-L-thyronine, reference compound] | – | + | 1 | affinity for the receptor as % of the affinity of T3 [8]: 2%
